How the values were obtained:
pBMO promoter activity = assay type: cell-based, E. coli; settings: for activation of pBMO-promoter expression by BmoR in response to alcohol: E. coli, pBMO::GFP reporter
Method: A pBMO-promoter::GFP reporter cassette is constructed. The pBMO-promoter comprises the nucleotide sequences from the −425 nucleotide to the +11 nucleotide. This section of the pBMO-promoter comprises the upstream activating sequence (UAS) to which BmoR binds. A deletion analysis is performed whereby the upstream sequence is deleted to produce reporter cassettes comprising of the −325 nucleotide to the +1 nucleotide fragment, the −225 nucleotide to the +1 nucleotide fragment, the −175 nucleotide to the +1 nucleotide fragment, the +1 nucleotide to the +1 nucleotide fragment, and no fragment (FIG. 3). The various reporter cassettes are introduced into an E. coli. also containing the bmoR gene operatively linked to the pBAD promoter or a pZT promoter. The pBAD promoter is taught by Guzman, L. M., et al., “Tight regulation, modulation, and high-level expression by vectors containing the arabinose PBAD promoter”, J. Bacteriol. 177(14):4121-4130 (1995), which is incorporated by reference.
Using the pBMO-promoter reporter cassette comprising of the −325 nucleotide to the +1 nucleotide fragment, the E. coli strain is analyzed for the optimum temperature for pBMO promoter activity using different concentrations of butan-1-ol.
Using the pBMO-promoter reporter cassette comprising of the −325 nucleotide to the +1 nucleotide fragment, the E. coli strain is analyzed for pBMO promoter activity in response to different alcohols: butan-1-ol (FIG. 5), ethanol (FIG. 6), 1-propanol (FIG. 6), 2-propanol (FIG. 6), pentanol (FIG. 5), and hexanol (FIG. 5). From an overnight culture harboring a plasmid containing GFP under control of pBMO and BmoR under control of pZT 5 mL cultures of rich media were inoculated (1.5% v/v). Cultures are grown at 37° C., 200 rpm, until reaching an optical density (OD600) of 0.25 and induced with 57.5 ng/mL anhydrotetracyline. The cultures are than grown at 25° C., 200 rpm, until reaching an OD600=0.80 at which point they are diluted to an OD600=0.20 in media containing a range of alcohol concentrations. The culture tubes are sealed with parafilm and grown at 25° C., 200 rpm, for 18 hours. 150 μl culture samples are quantified for GFP fluorescence on a 96-well plate reader.

[1] = test system: E. coli cultures harboring the butanol biosensor controlling TetA expression; settings: media with multiple concentrations of butanol and tetracycline; N=4
Method: The BmoR transcription factor is used to construct a genetic selection for the presence of butanol in the media.
Maximal growth rates are calculated by fitting curves to the Gompertz equation. […] N=4, mean±standard deviation.

[2] = test system: 300-nucleotide DNA fragment upstream of the pBMO-promoter; experiment: Gel mobility shift assay; assay type: binding; settings: purified His-tagged BmoR, DIG Gel Shift Kit
Text: A DIG Gel Shift Kit (Roche Applied Science, Indianapolis, Ind.) is used according to the manufacturer's instructions.

| Molecule | activation of pBMO-promoter expression by BmoR in response to alcohol (pBMO promoter activity) | also measured |
| --- | --- | --- |
| CCCCCCO [1-hexanol] | capable of activating pBMO-promoter expression |  |
| CCCCCO [1-pentanol] | capable of activating pBMO-promoter expression |  |
| CCCO [1-propanol] | capable of activating pBMO-promoter expression |  |
| CC(C)O [2-propanol] | capable of activating pBMO-promoter expression |  |
| CCC(C)O (stereo not drawn) [butan-1-ol] | capable of activating pBMO-promoter expression | butanol dependent growth (maximal growth rate) [1]: strong butanol dependent growth; activation of the reporter gene (optimum condition) (pBMO promoter activity; cultured at 25° C. with 0.5% of butan-1-ol by volume, compared to the other conditions tested): the activation of the reporter gene is the strongest |
| CCO [ethanol] | capable of activating pBMO-promoter expression |  |
| BmoR: σ54-dependent transcription factor (activator protein) of P. butanovora, SEQ ID NO: 4, activated by C2-C8 alcohols (protein, listed as Pseudomonas butanova) MSKMQEFARLETVASMRRAVWDGNECQPGKVADVVLRSWTRCRAEGVVPNARQEFDPIPRTALDETVEAKRALILAAEPVVDALMEQMNDAPRMIILNDERGVVLLNQGNDTLLEDARRRAVRVGVCWDEHARGTNAMGTALAERRPVAIHGAEHYLESNTIFTCTAAPIYDPFGEFTGILDISGYAGDMGPVPIPFVQMAVQFIENQLFRQTFADCILLHFHVRPDFVGTMREGIAVLSREGTIVSMNRAGLKIAGLNLEAVADHRFDSVFDLNFGAFLDHVRQSAFGLVRVSLYGGVQVYARVEPGLRVPPRPAAHARPPRPAPRPLDSLDTGDAAVRLAIDRARRAIGRNLSILIQGETGAGKEVFAKHLHAESPRSKGPFVAVNCAAIPEGLIESELFGYEEGAFTGGRRKGNIGKVAQAHGGTLFLDEIGDMAPGLQTRLLRVLQDRAVMPLGGREPMPVDIALVCATHRNLRSLIAQGQFREDLYYRLNGLAISLPPLRQRSDLAALVNHILFQCCGGEPHYSVSPEVMTLFKRHAWPGNLRQLHNVLDAALAMLDDGHVIEPHHLPEDFVMEVDSGLRPIEEDGSTAAHRARQPASGSGPAKKLQDLALDAIEQAIEQNEGNISVAARQLGVSRTTIYRKLRQLSPTGCHRPAHWSQSRIGT |  | binding of BmoR upstream of the pBMO-promoter (band shift) [2]: A band shift is observed |

Reference: patent US8552169B2, “Transcription factor-based biosensor” (The Regents of the University of California, priority 2009, dated 2013)
